Here are results for 1 molecule from ChEMBL document CHEMBL4823311, “Optimization of Naphthyridones into Selective TATA-Binding Protein Associated Factor 1 (TAF1) Bromodomain Inhibitors” (ACS Med Chem Lett, 2021).

Series [1] deals with Chromatin remodeling regulator CECR2 (Homo sapiens, UniProt Q9BXF3). As to the kind of experiment: Inhibition of human partial length CECR2 (P423 to D543 residues) expressed in bacterial expression system by BROMOscan assay.
Series [2] in a line: Intrinsic clearance in human microsomes. The class given is ADME, Microsome.
The target of series [3] is T1, Bromodomain-containing protein 4 (Homo sapiens, UniProt O60885). As to the kind of experiment: Inhibition of BRD4 BD1 (unknown origin) by TR-FRET assay.
Series [4] in a line: Lipophilicity, logD of the compound at pH 7.4 by chromatographic method. The class given is physicochemical. Conditions: buffer.
The nature of series [5]: Passive permeability of the compound across artificial membrane by AMP assay. Conditions: PAMPA; read-out: permeability. The class given is ADME. In general terms: The PAMPA barrier holds no transporters, so it reflects passive diffusion.
The target of series [6] is T2, Transcription initiation factor TFIID subunit 1 (Homo sapiens, UniProt P21675). As to the kind of experiment: Inhibition of human partial length TAF1 bromodomain 2 (D1521 to D1656 residues) expressed in bacterial expression system by BROMOscan assay.
The target of series [7] is T2, Transcription initiation factor TFIID subunit 1. As to the kind of experiment: Displacement of Halo-tagged histone H4 from NanoLuc-tagged TAF1 bromodomain 2 (unknown origin) expressed in HEK293 cells measured after 4 to 6 hrs by NanoBRET assay. Format: cell-based.
The nature of series [8]: Solubility of the compound by CAD method. Format: physicochemical.
In series [9] the target is T1, Bromodomain-containing protein 4. As to the kind of experiment: Inhibition of human partial length BRD4 BD2 (K333 to E460 residues) expressed in bacterial expression system by BROMOscan assay.
For a further series, the target named is T3, Peregrin (Homo sapiens, UniProt P55201).
T3 sequence (P55201 whole entry): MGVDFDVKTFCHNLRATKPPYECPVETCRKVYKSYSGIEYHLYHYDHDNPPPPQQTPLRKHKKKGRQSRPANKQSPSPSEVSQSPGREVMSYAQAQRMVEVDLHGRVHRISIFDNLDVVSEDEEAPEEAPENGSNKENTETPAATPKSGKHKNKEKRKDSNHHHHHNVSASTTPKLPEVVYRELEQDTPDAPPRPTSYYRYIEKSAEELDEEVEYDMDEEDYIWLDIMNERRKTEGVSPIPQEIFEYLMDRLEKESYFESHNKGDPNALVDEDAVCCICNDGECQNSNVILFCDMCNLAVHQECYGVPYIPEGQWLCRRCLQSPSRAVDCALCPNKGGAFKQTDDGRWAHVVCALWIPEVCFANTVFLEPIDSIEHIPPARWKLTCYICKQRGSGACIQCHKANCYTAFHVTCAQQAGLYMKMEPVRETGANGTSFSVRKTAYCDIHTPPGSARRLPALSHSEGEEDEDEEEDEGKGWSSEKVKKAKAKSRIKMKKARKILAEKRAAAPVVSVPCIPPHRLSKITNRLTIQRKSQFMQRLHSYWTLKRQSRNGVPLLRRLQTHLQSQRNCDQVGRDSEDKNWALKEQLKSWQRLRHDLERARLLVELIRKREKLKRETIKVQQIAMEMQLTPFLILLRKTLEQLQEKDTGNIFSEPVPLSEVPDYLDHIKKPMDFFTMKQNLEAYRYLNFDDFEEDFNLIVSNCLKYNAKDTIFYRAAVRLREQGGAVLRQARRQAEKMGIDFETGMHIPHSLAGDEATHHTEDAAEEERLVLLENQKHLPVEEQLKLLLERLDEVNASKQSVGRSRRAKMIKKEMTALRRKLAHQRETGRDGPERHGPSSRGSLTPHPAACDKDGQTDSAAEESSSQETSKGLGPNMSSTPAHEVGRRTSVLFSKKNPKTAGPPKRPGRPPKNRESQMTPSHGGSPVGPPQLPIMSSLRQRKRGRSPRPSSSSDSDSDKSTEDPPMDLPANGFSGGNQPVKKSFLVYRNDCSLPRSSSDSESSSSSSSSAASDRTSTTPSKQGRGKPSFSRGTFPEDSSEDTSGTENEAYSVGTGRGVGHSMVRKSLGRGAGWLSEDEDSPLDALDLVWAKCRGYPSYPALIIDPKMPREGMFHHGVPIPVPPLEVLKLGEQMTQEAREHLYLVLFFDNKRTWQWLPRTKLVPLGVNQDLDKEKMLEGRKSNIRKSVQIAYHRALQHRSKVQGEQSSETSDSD
As to the kind of experiment: Inhibition of human partial length BRPF1 (E627 to G740 residues) expressed in bacterial expression system by BROMOscan assay.

Converted amounts (≈) assume the structure as drawn.

T2 sequence (P21675 whole entry, the tested form may be a part): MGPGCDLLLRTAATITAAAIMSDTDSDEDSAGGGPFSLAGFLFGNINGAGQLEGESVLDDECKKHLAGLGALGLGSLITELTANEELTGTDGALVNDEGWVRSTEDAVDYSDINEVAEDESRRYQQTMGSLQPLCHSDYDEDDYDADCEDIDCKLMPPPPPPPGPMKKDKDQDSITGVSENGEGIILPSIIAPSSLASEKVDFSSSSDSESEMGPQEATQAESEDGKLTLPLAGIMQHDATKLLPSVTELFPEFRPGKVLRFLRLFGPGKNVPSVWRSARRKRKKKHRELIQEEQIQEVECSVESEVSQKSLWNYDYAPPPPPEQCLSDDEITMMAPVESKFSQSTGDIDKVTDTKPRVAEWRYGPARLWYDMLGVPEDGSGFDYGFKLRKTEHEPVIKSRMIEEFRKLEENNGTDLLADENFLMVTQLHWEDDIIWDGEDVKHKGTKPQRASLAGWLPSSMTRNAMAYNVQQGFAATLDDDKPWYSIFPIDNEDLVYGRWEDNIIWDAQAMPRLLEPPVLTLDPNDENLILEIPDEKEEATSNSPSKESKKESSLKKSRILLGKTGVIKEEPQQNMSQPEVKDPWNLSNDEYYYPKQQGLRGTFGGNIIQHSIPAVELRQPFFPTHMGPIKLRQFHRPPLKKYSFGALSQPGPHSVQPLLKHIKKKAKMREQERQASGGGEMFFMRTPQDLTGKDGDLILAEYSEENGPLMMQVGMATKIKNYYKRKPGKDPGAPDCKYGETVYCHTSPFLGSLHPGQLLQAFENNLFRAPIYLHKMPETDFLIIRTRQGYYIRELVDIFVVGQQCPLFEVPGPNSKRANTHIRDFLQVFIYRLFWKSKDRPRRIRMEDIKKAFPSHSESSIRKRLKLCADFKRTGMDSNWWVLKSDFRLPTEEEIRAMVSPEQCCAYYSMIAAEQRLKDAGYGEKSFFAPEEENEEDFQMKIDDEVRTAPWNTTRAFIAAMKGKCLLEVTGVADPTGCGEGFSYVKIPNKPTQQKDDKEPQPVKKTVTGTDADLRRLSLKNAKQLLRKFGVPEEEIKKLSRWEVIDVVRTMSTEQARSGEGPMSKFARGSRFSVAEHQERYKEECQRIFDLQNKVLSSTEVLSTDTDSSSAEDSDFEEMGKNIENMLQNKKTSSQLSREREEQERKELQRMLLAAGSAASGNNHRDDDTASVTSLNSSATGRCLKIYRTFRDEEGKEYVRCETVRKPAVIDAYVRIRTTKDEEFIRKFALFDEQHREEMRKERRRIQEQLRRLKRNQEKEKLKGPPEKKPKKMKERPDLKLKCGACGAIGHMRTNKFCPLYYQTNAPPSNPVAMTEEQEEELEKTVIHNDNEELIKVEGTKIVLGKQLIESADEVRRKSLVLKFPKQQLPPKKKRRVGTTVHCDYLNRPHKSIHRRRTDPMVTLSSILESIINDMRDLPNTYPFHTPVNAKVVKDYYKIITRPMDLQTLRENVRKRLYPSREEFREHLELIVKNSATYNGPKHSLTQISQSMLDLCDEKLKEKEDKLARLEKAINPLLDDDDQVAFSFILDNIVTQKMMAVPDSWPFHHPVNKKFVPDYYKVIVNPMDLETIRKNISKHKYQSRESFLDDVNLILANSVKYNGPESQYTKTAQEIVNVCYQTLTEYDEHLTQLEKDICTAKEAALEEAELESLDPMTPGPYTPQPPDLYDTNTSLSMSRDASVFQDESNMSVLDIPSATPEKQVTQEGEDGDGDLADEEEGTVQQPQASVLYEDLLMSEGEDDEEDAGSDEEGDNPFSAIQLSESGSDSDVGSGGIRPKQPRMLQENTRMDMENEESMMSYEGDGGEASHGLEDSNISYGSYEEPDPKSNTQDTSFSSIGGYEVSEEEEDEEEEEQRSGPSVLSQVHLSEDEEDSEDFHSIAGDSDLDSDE
Sequence of Chromatin remodeling regulator CECR2 (Q9BXF3 whole entry, the tested form may be a part): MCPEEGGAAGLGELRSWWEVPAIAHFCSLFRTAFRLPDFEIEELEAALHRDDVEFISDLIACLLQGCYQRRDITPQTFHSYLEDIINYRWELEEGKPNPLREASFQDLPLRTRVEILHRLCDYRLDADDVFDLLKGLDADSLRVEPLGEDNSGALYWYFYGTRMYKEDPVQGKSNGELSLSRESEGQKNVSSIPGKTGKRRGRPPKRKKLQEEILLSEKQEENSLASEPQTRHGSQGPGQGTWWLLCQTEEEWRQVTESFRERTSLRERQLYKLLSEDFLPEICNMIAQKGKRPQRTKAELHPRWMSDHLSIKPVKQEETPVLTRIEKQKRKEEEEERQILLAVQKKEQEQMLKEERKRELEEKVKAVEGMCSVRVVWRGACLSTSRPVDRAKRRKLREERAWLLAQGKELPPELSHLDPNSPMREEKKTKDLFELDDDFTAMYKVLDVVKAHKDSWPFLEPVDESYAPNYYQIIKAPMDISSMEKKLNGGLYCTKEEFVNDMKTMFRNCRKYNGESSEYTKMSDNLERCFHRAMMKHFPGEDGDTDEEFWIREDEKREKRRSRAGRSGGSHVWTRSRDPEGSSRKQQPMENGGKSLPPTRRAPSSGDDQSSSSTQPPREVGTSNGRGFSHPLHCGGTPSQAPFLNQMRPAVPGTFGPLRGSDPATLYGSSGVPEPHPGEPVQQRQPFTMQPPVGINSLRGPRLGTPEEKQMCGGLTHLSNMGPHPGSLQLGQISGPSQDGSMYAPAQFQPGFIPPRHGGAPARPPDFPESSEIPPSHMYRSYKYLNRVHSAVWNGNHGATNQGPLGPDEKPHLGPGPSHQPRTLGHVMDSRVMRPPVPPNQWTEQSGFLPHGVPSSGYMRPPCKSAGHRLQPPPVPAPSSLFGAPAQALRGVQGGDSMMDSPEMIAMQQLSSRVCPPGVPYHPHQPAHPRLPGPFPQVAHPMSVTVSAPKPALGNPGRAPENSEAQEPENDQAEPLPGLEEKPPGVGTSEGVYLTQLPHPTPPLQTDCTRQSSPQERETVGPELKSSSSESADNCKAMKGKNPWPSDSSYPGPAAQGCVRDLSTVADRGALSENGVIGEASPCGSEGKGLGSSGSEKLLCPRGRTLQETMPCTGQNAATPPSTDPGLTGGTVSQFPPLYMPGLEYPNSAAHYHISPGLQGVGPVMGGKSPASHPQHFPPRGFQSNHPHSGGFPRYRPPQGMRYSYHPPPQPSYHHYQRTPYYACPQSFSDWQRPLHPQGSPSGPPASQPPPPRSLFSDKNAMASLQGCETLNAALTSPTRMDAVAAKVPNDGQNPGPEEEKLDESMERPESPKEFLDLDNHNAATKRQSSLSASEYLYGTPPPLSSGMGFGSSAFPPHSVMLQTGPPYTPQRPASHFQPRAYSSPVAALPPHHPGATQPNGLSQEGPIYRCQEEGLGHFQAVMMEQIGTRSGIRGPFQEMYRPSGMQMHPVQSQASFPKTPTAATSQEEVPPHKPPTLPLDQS

The Ki is a measure of affinity in units of concentration, obtained from inhibition or displacement. As a reminder, the CLint scaled is the capacity of the preparation to metabolise the compound, expressed as a volume cleared per time. The low end stands for slow turnover, the high end for rapid turnover. Broadly, the IC50 is the concentration that gives 50% inhibition. Lower therefore signals greater potency in that assay. The term chromatographic logD denotes a lipophilicity value derived from retention on a column. A low value points to a more hydrophilic compound. What is called solubility is the dissolved amount per volume that the medium holds. Read a high solubility as much dissolved substance. Turning to `Cc1cc2c(C3=CCOCC3)cnc(NC3CCN(C(=O)C(F)(F)CN)CC3)c2[nH]c1=O`, the Ki was 1000 nM in [1], 0.794 nM in series [6], 794 nM in series [9] and 5010 nM at Peregrin. Besides, in series [2], the CLint scaled was 20.4 mL/min/kg. The concentration for half-maximal inhibition (IC50) in series [3] is more than 20000 nM; in [7], more than 10000 nM. The chromatographic logD in [4] was 2.7. Also, the Papp in [5] turned out to be 6.2 ×10⁻⁶ cm/s. For the same molecule, the solubility in [8] is 24 µg/mL (≈ 53.6 µM).
